Data as given in patent publication US10597388B2, “Pyridazinone herbicides” (FMC CORPORATION, priority 2014, dated 2020).

Key:
Assay in all cases: Test D controlled growth environment herbicide test, pre- and postemergence
Type in all cases: in vivo
[1] = tested on: wheat, spring (spring wheat, Triticum aestivum)
Excerpt: (§1) Seeds of plant species selected from bluegrass (annual bluegrass, Poa annua), blackgrass (Alopecurus myosuroides), Canada thistle (Cirsium arvense), canarygrass (Phalaris minor), chickweed (common chickweed, Stellaria media), geranium, cutleaf (cutleaf geranium, Geranium dissectum), galium (catchweed bedstraw, Galium aparine), bromegrass, downy (downy bromegrass, Bromus tectorum), field poppy (Papaver rhoeas), field violet (Viola arvensis), foxtail, green (green foxtail, Setaria viridis), deadnettle (henbit deadnettle, Lamium amplexicaule), ryegrass, Italian (Italian ryegrass, Lolium multiflorum), kochia (Kochia scoparia), lambsquarters (Chenopodium album), oilseed rape (Brassica napus), pigweed (Amaranthus retroflexus), chamomile (scentless chamomile, Matricaria inodora), Russian thistle (Salsola kali), speedwell (bird's-eye speedwell, Veronica persica), barley, spring (spring barley, Hordeum vulgare), wheat, spring (spring wheat, Triticum aestivum), buckwheat, wild (wild buckwheat, Polygonum convolvulus), mustard, wild (wild mustard, Sinapis arvensis), oat, wild (wild oat, Avena fatua), radish, wild (wild radish, Raphanus raphanistrum), windgrass (Apera spica-venti), barley, winter (winter barley, Hordeum vulgare), and wheat, winter (winter wheat, Triticum aestivum) were planted into a silt loam soil and treated preemergence with test chemicals formulated in a non-phytotoxic solvent mixture which included a surfactant.
(§2) At the same time, these species were planted in pots containing Redi-Earth® planting medium (Scotts Company, 14111 Scottslawn Road, Marysville, Ohio 43041) comprising spaghnum peat moss, vermiculite, wetting agent and starter nutrients and treated with postemergence applications of the test chemicals formulated in the same manner. Plants ranged in height from 2 to 18 cm (1- to 4-leaf stage). Treated plants and controls were maintained in a controlled growth environment for 14 to 21 d after which time all species were compared to controls and visually evaluated. Plant response ratings, summarized in Table D, are based on a scale of 0 to 100 where 0 is no effect and 100 is complete control. A dash (-) response means no test result.

[2] = tested on: pigweed (Amaranthus retroflexus)
Excerpt: as §1, §2

[3] = tested on: speedwell (bird's-eye speedwell, Veronica persica)
Excerpt: as §1, §2

[4] = tested on: Russian thistle (Salsola kali)
Excerpt: as §1, §2

[5] = tested on: mustard, wild (wild mustard, Sinapis arvensis)
Excerpt: as §1, §2

[6] = tested on: bluegrass (annual bluegrass, Poa annua)
Excerpt: as §1, §2

[7] = tested on: barley, winter (winter barley, Hordeum vulgare)
Excerpt: as §1, §2

[8] = tested on: blackgrass (Alopecurus myosuroides)
Excerpt: as §1, §2

[9] = tested on: oat, wild (wild oat, Avena fatua)
Excerpt: as §1, §2

kochia (Kochia scoparia) = tested on: kochia (Kochia scoparia)
Excerpt: as §1, §2

[10] = tested on: barley, spring (spring barley, Hordeum vulgare)
Excerpt: as §1, §2

[11] = tested on: field poppy (Papaver rhoeas)
Excerpt: as §1, §2

[12] = tested on: radish, wild (wild radish, Raphanus raphanistrum)
Excerpt: as §1, §2

[13] = Postemergence, 31 g ai/ha, scale 0 to 100 (0 no effect, 100 complete control)
[14] = Postemergence, 125 g ai/ha, visual rating on scale 0 (no effect) to 100 (complete control), 14 to 21 d
[15] = Postemergence, 250 g ai/ha, scale 0 to 100 (0 no effect, 100 complete control)
[16] = postemergence, 62 g ai/ha, scale 0 to 100, 0 no effect, 100 complete control

Cc1cc(C)c2ccccc2c1-c1c(O)c(C)nn(C)c1=O [Compound 21]
Wheat, Spring plant response rating [1, 13]: 20
Plant response rating, Wheat, Spring [1, 14]: 40
Plant response rating, Wheat, Spring [1, 15]: 50
Plant response rating, Wheat, Spring [1, 16]: 30
Pigweed plant response rating [2, 13]: 80
Plant response rating, Pigweed [2, 14]: 90
Plant response rating, Pigweed [2, 15]: 98
Plant response rating, Pigweed [2, 16]: 85
Speedwell plant response rating [3, 13]: 100
Plant response rating, Speedwell [3, 14]: 100
Plant response rating, Speedwell [3, 15]: 100
Plant response rating, Speedwell [3, 16]: 100
Russian Thistle plant response rating [4, 13]: 70
Plant response rating, Russian Thistle [4, 14]: 80
Plant response rating, Russian Thistle [4, 15]: 85
Plant response rating, Russian Thistle [4, 16]: 75
Mustard, Wild plant response rating [5, 13]: 100
Plant response rating, Mustard, Wild [5, 14]: 100
Plant response rating, Mustard, Wild [5, 15]: 100
Plant response rating, Mustard, Wild [5, 16]: 100
Bluegrass plant response rating [6, 13]: 20
Plant response rating, Bluegrass [6, 14]: 35
Plant response rating, Bluegrass [6, 15]: 50
Plant response rating, Bluegrass [6, 16]: 30
Plant response rating, Barley, Winter [7, 13]: 0
Plant response rating, Barley, Winter [7, 14]: 30
Plant response rating, Barley, Winter [7, 15]: 40
Plant response rating, Barley, Winter [7, 16]: 10
Blackgrass plant response rating [8, 13]: 80
Plant response rating, Blackgrass [8, 14]: 85
Plant response rating, Blackgrass [8, 15]: 90
Plant response rating, Blackgrass [8, 16]: 85
Oat, Wild plant response rating [9, 13]: 80
Plant response rating, Oat, Wild [9, 14]: 85
Plant response rating, Oat, Wild [9, 15]: 100
Plant response rating, Oat, Wild [9, 16]: 85
Kochia plant response rating (kochia (Kochia scoparia); [13]): 35
Plant response rating, Kochia (kochia (Kochia scoparia); [14]): 75
Plant response rating, Kochia (kochia (Kochia scoparia); [15]): 85
Plant response rating, Kochia (kochia (Kochia scoparia); [16]): 45
Plant response rating, Barley, Spring [10, 13]: 0
Plant response rating, Barley, Spring [10, 14]: 10
Plant response rating, Barley, Spring [10, 15]: 30
Plant response rating, Barley, Spring [10, 16]: 5
Field Poppy plant response rating [11, 13]: 85
Plant response rating, Field Poppy [11, 14]: 100
Plant response rating, Field Poppy [11, 15]: 100
Plant response rating, Field Poppy [11, 16]: 100
Radish, Wild plant response rating [12, 13]: 95
Plant response rating, Radish, Wild [12, 14]: 100
Plant response rating, Radish, Wild [12, 15]: 100
Plant response rating, Radish, Wild [12, 16]: 100
